From patent US6649595B2, “Regulation of biological events using novel compounds” (ARIAD Gene Therapeutics, Inc., priority 1995, dated 2003) come the findings set out here.

The target of the test is T1, FKBPwt (Homo sapiens, UniProt P62942).
T1 construct: made in house
The test can be described thus: Competitive fluorescence polarization (FP) binding assay of rapalogs to FKBP. (In fluorescence polarisation assays a small probe gives low polarisation when free and higher when bound to something large.)

[1] abbreviates: =IC50/IC50 of rapamycin, C24 analogs, Table 4.
Where [2] appears, read: rapamycin C24 analogs, Table 4, read-out: FKBPwt FP binding assay IC50.
Setting [3] is: =IC50/IC50 of rapamycin, C7 rapalogs.
Setting [4] is: C7 rapalogs, read-out: FKBPwt FP binding assay IC50.
Setting [5] is: FKBPwt FP binding assay IC50 (nM), C7 rapalogs.

Read-outs that look alike come from different tables or passages of the source.

The IC50 is the midpoint of a concentration-inhibition curve.

T1 sequence (P62942 whole entry): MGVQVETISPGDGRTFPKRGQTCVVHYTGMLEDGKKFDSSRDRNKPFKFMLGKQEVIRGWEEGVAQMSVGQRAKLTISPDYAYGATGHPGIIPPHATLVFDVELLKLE
Method: Serial 10-fold dilutions of each analog were prepared in 100% ethanol in glass vials and stored on ice. All other manipulations were performed at room temperature. […] Finally, a probe solution was prepared containing 10 nM AP1491 in 0.1% ethanol/FP buffer, and 100 μl added to each well with mixing.
The plates were stored covered in the dark for approximately 30 min to permit equilibration and then the fluorescence polarization of the sample in each well read on a Jolley FPM-2 FP plate reader (Jolley Consulting and Research, Inc., Grayslake, Ill.) in accordance with the manufacturer's recommendations. The mean polarization (mP units)
for each competitor concentration was usually converted to % total binding by reference to the control values and plotted (y) vs. log molar final concentration of competitor (x). Non-linear least square analysis was used to fit the curve and extract the IC50 using the following equation:
y=M1+(M4−M1)/(1+exp(M2*(M3−x)))
where M3 is the IC50. For incomplete curves the IC50 was determined by interpolation.

With `COC1CC2CCC(C)C(O)(O2)C(=O)C(=O)N2CCCCC2C(=O)OC(C(C)CC2CCC(O)C(OC)C2)CC(=NOCC(N)=O)C(C)C=C(C)C(O)C(OC)C(=O)C(C)CC(C)C=CC=CC=C1C` (single isomer, unassigned) [Compound 16, Rapamycin (E and Z)-24-(O-carboxamidomethyloxime)], under setting [1], the “fold loss in affinity (vs rapamycin)” value amounted to 88.7. Also, the IC50 under setting [2] was 204 nM. The corresponding values for `COC1CC2CCC(C)C(O)(O2)C(=O)C(=O)N2CCCCC2C(=O)OC(C(C)CC2CCC(O)C(OC)C2)C/C(=N/OC(C)(C)C)C(C)C=C(C)C(O)C(OC)C(=O)C(C)CC(C)C=CC=CC=C1C` (stereo not drawn) [Compound 19] are greater than 13043 and greater than 30000 nM. With `CCO/N=C1/C[C@@H]([C@H](C)C[C@@H]2CC[C@@H](O)[C@H](OC)C2)OC(=O)[C@@H]2CCCCN2C(=O)C(=O)[C@]2(O)O[C@@H](CC[C@H]2C)C[C@H](OC)/C(C)=C/C=C/C=C/[C@@H](C)C[C@@H](C)C(=O)[C@H](OC)[C@H](O)/C(C)=C/[C@H]1C` [Compound 7, Rapamycin (E and Z)-24-(O-ethyloxime)], under setting [1], the “fold loss in affinity (vs rapamycin)” value was 1287. For the same compound, the IC50 under setting [2] amounted to 2960 nM. With `CO[C@@H]1C[C@H](C[C@@H](C)[C@@H]2CC(=O)[C@H](C)/C=C(\C)[C@@H](O)[C@@H](OC)C(=O)[C@H](C)C[C@H](C)/C=C/C=C/C=C(\C)[C@@H](c3c[nH]c4ccccc34)C[C@@H]3CC[C@@H](C)[C@@](O)(O3)C(=O)C(=O)N3CCCC[C@H]3C(=O)O2)CC[C@H]1O` [Compound 44], under setting [3], the “fold loss in affinity (cf rapamycin)” value turned out to be 3.3. Besides, the IC50 under setting [4] was found to be 7.8 nM. In the case of `COC1CC2CCC(C)C(O)(O2)C(=O)C(=O)N2CCCCC2C(=O)OC(C(C)CC2CCC(O)C(OC)C2)CC(=NOCC(C)C)C(C)C=C(C)C(O)C(OC)C(=O)C(C)CC(C)C=CC=CC=C1C` (stereo not drawn) [Compound 10, Rapamycin (E and Z)-24-(O-isobutyloxime)], the “fold loss in affinity (vs rapamycin)” value under setting [1] amounted to 890. Consider “apamycin (E and Z)-24-(O-benzyloxime) [Compound 11]”, for which the “fold loss in affinity (vs rapamycin)” value was 3627. Moreover, where the note is “read-out: FKBPwt FP binding assay IC50”, the IC50 came to 8340 nM.

Regarding `CO[C@@H]1C[C@H](C[C@@H](C)[C@@H]2CC(=O)[C@H](C)/C=C(\C)[C@@H](O)[C@@H](OC)C(=O)[C@H](C)C[C@H](C)/C=C/C=C/C=C(\C)[C@H](c3ccc(C(C)(C)C)s3)C[C@@H]3CC[C@@H](C)[C@@](O)(O3)C(=O)C(=O)N3CCCC[C@H]3C(=O)O2)CC[C@H]1O` [Compound 40], the “fold loss in affinity (cf rapamycin)” value under setting [3] is listed as 1.5. The IC50 under setting [4] was determined as 3.4 nM. The corresponding values for `CO[C@@H]1C[C@H](C[C@@H](C)[C@@H]2CC(=O)[C@H](C)/C=C(\C)[C@@H](O)[C@@H](OC)C(=O)[C@H](C)C[C@H](C)/C=C/C=C/C=C(\C)[C@@H](OC(C)C)C[C@@H]3CC[C@@H](C)[C@@](O)(O3)C(=O)C(=O)N3CCCC[C@H]3C(=O)O2)CC[C@H]1O` [Compound 29] are 1.0 and 2.2 nM. The corresponding values for `COc1ccc(C2CC3CCC(C)C(O)(O3)C(=O)C(=O)N3CCCCC3C(=O)OC(C(C)CC3CCC(O)C(OC)C3)CC(=O)C(C)C=C(C)C(O)C(OC)C(=O)C(C)CC(C)C=CC=CC=C2C)c(OC)c1` (single isomer, unassigned) [Compound 43] are 8.7 and 20 nM. In the case of `CO[C@@H]1C[C@H](C[C@@H](C)[C@@H]2CC(=O)[C@H](C)/C=C(\C)[C@@H](O)[C@@H](OC)C(=O)[C@H](C)C[C@H](C)/C=C/C=C/C=C(\C)[C@@H](c3ccc(C)s3)C[C@@H]3CC[C@@H](C)[C@@](O)(O3)C(=O)C(=O)N3CCCC[C@H]3C(=O)O2)CC[C@H]1O` [Compound 36], the “fold loss in affinity (cf rapamycin)” value came to 1.6. This compound showed an IC50 (FKBPwt FP binding assay IC50 (nM)) of 3.7 nM.

Take `CO[C@@H]1C[C@H](C[C@@H](C)[C@@H]2CC(=O)[C@H](C)/C=C(\C)[C@@H](O)[C@@H](OC)C(=O)[C@H](C)C[C@H](C)/C=C/C=C/C=C(\C)[C@H](c3ccco3)C[C@@H]3CC[C@@H](C)[C@@](O)(O3)C(=O)C(=O)N3CCCC[C@H]3C(=O)O2)CC[C@H]1O` [Compound 35]: the “fold loss in affinity (cf rapamycin)” value under setting [3] amounted to 13. The IC50 under setting [5] is 29 nM. For `COC(=O)N[C@H]1C[C@@H]2CC[C@@H](C)[C@@](O)(O2)C(=O)C(=O)N2CCCC[C@H]2C(=O)O[C@H]([C@H](C)C[C@@H]2CC[C@@H](O)[C@H](OC)C2)CC(=O)[C@H](C)/C=C(\C)[C@@H](O)[C@@H](OC)C(=O)[C@H](C)C[C@H](C)/C=C/C=C/C=C/1C` [Compound 32], the “fold loss in affinity (cf rapamycin)” value under setting [3] is recorded as 1.9. In addition, under setting [4], the IC50 was 4.3 nM. As to `CCOC1C[C@@H]2CC[C@@H](C)[C@@](O)(O2)C(=O)C(=O)N2CCCC[C@H]2C(=O)OC([C@H](C)C[C@@H]2CC[C@@H](O)[C@H](OC)C2)CC(=O)[C@H](C)/C=C(\C)[C@@H](O)[C@@H](OC)C(=O)[C@H](C)C[C@H](C)/C=C/C=C/C=C/1C` (stereo partly drawn) [Compound 27], the “fold loss in affinity (cf rapamycin)” value under setting [3] is 1.1. Besides, the IC50 under setting [4] was found to be 2.6 nM. With `CON=C1CC(C(C)CC2CCC(O)C(OC)C2)OC(=O)C2CCCCN2C(=O)C(=O)C2(O)OC(CCC2C)CC(OC)C(C)=CC=CC=CC(C)CC(C)C(=O)C(OC)C(O)C(C)=CC1C` (single isomer, unassigned) [Compound 6, Rapamycin (E and Z)-24-(O-methyloxime)], the “fold loss in affinity (vs rapamycin)” value under setting [1] was 190. Moreover, under setting [2], the IC50 was determined as 438 nM. In the case of `COC1CC2CCC(C)C(O)(O2)C(=O)C(=O)N2CCCCC2C(=O)OC(C(C)CC2CCC(O)C(OC)C2)C/C(=N\O)C(C)C=C(C)C(O)C(OC)C(=O)C(C)CC(C)C=CC=CC=C1C` (stereo not drawn) [Compound 18], the “fold loss in affinity (vs rapamycin)” value under setting [1] is 25.7. For the same compound, the IC50 under setting [2] was determined as 59.1 nM.

Take `COC1CC2CCC(C)C(O)(O2)C(=O)C(=O)N2CCCCC2C(=O)OC(C(C)CC2CCC(O)C(OC)C2)CC(=NOCC(=O)O)C(C)C=C(C)C(O)C(OC)C(=O)C(C)CC(C)C=CC=CC=C1C` (single isomer, unassigned) [Compound 14, Rapamycin (E and Z)-24-(O-carboxymethyloxime)]: under setting [1], the “fold loss in affinity (vs rapamycin)” value is 1022. The IC50 under setting [2] was 2350 nM. As for `COC1CC2CCC(C)C(O)(O2)C(=O)C(=O)N2CCCCC2C(=O)OC(C(C)CC2CCC(O)C(OC)C2)CC(=NOCC(N)=O)C(C)C=C(C)C(O)C(OC)C(=O)C(C)CC(C)C=CC=CC=C1C` (single isomer, unassigned) [Compound 15, Rapamycin (E and Z)-24-(O-carboxamidomethyloxime)], under setting [1], the “fold loss in affinity (vs rapamycin)” value amounted to 500. The IC50 under setting [2] came to 1150 nM. Take `COC(=O)N[C@@H]1C[C@@H]2CC[C@@H](C)[C@@](O)(O2)C(=O)C(=O)N2CCCC[C@H]2C(=O)O[C@H]([C@H](C)C[C@@H]2CC[C@@H](O)[C@H](OC)C2)CC(=O)[C@H](C)/C=C(\C)[C@@H](O)[C@@H](OC)C(=O)[C@H](C)C[C@H](C)/C=C/C=C/C=C/1C` [Compound 31]: the “fold loss in affinity (cf rapamycin)” value under setting [3] is 1.1. The concentration for half-maximal inhibition (IC50) under setting [4] worked out at 2.6 nM. On to `COC1CC2CCC(C)C(O)(O2)C(=O)C(=O)N2CCCCC2C(=O)OC(C(C)CC2CCC(O)C(OC)C2)C/C(=N\OC(C)(C)C)C(C)C=C(C)C(O)C(OC)C(=O)C(C)CC(C)C=CC=CC=C1C` (stereo not drawn) [Compound 20], for which, under setting [1], the “fold loss in affinity (vs rapamycin)” value is 1046. Also, the IC50 under setting [2] was 2410 nM.

With `CO[C@@H]1C[C@H](C[C@@H](C)[C@@H]2CC(=O)[C@H](C)/C=C(\C)[C@@H](O)[C@@H](OC)C(=O)[C@H](C)C[C@H](C)/C=C/C=C/C=C(\C)[C@@H](c3ccco3)C[C@@H]3CC[C@@H](C)[C@@](O)(O3)C(=O)C(=O)N3CCCC[C@H]3C(=O)O2)CC[C@H]1O` [Compound 34], under setting [3], the “fold loss in affinity (cf rapamycin)” value is 12. The same compound showed an IC50 under setting [5] of 28 nM.

Take `COC1CC2CCC(C)C(O)(O2)C(=O)C(=O)N2CCCCC2C(=O)OC(C(C)CC2CCC(O)C(OC)C2)CC(=NOCC(=O)O)C(C)C=C(C)C(O)C(OC)C(=O)C(C)CC(C)C=CC=CC=C1C` (single isomer, unassigned) [Compound 13, Rapamycin (E and Z)-24-(O-carboxymethyloxime)]: under setting [1], the “fold loss in affinity (vs rapamycin)” value is 3461. Under setting [2], the IC50 amounted to 7960 nM. Regarding `CO[C@@H]1C[C@H](C[C@@H](C)[C@@H]2CC(=O)[C@H](C)/C=C(\C)[C@@H](O)[C@@H](OC)C(=O)[C@H](C)C[C@H](C)/C=C/C=C/C=C(\C)[C@@H](c3ccc(C(C)(C)C)s3)C[C@@H]3CC[C@@H](C)[C@@](O)(O3)C(=O)C(=O)N3CCCC[C@H]3C(=O)O2)CC[C@H]1O` [Compound 41], the “fold loss in affinity (cf rapamycin)” value under setting [3] came out at 1.3. The IC50 under setting [4] stood at 2.9 nM. With `COC1CC2CCC(C)C(O)(O2)C(=O)C(=O)N2CCCCC2C(=O)OC(C(C)CC2CCC(O)C(OC)C2)C/C(=N/O)C(C)C=C(C)C(O)C(OC)C(=O)C(C)CC(C)C=CC=CC=C1C` (stereo not drawn) [Compound 17], under setting [1], the “fold loss in affinity (vs rapamycin)” value is reported as 269. Also, the IC50 under setting [2] amounted to 618 nM.

Turning to `COc1ccc(C2CC3CCC(C)C(O)(O3)C(=O)C(=O)N3CCCCC3C(=O)OC(C(C)CC3CCC(O)C(OC)C3)CC(=O)C(C)C=C(C)C(O)C(OC)C(=O)C(C)CC(C)C=CC=CC=C2C)c(OC)c1` (single isomer, unassigned) [Compound 42], the “fold loss in affinity (cf rapamycin)” value under setting [3] stood at 1.0. Besides, the IC50 under setting [4] stood at 2.2 nM. With `CCc1ccc([C@H]2C[C@@H]3CC[C@@H](C)[C@@](O)(O3)C(=O)C(=O)N3CCCC[C@H]3C(=O)O[C@H]([C@H](C)C[C@@H]3CC[C@@H](O)[C@H](OC)C3)CC(=O)[C@H](C)/C=C(\C)[C@@H](O)[C@@H](OC)C(=O)[C@H](C)C[C@H](C)/C=C/C=C/C=C/2C)s1` [Compound 38], the “fold loss in affinity (cf rapamycin)” value under setting [3] is recorded as 1.1. The IC50 under setting [4] stood at 2.5 nM. The corresponding values for `CCc1ccc([C@@H]2C[C@@H]3CC[C@@H](C)[C@@](O)(O3)C(=O)C(=O)N3CCCC[C@H]3C(=O)O[C@H]([C@H](C)C[C@@H]3CC[C@@H](O)[C@H](OC)C3)CC(=O)[C@H](C)/C=C(\C)[C@@H](O)[C@@H](OC)C(=O)[C@H](C)C[C@H](C)/C=C/C=C/C=C/2C)s1` [Compound 39] are 1.0 and 2.4 nM.
